Results: patent US6486151B2, “N-oxides of heterocyclic esters, amides, thioesters, and ketones” (GPI NIL Holdings Inc., priority 1997, dated 2002)
pEC50, pKi: −log10 of the molar value.

Assays:
[1] = Liver microsomal assay (model of first pass metabolism); type: in vitro ADME, mouse
Procedure: (§1) In studies to directly asses the rate of metabolism of N-oxides, a mouse liver microsomal assay was used as described below to model first pass metabolism.
Liver microsomes from various species were purchased from a commercial supplier. The microsomes are characterized prior to shipment. The reaction mixture contained microsomes, 5 μM MgCl2, 1 mM NADP, 4 mM glucose-6-phosphate (G-6-P), and 1 unit/4 mL glucose-6-phosphate dehydrogenase (G-6-P DH). The final microsomal protein concentration for all studies was 0.2 mg/mL. Incubations were carried out for 1 hour in a shaking water bath (37° C.). The reaction was terminated by removing an aliquot from the reaction mixture and placing it in a tube with an equal volume of acetonitrile and the bioanalytical internal standard. The results of these experiments are presented as compound half-lives (t1/2) in Table II.

FKBP12 = FKBP12 (Homo sapiens, UniProt P62942); experiment: Ki test procedure: inhibition of peptidyl-prolyl isomerase (rotamase) activity, chymotrypsin-coupled assay; type: biochemical; conditions: FKBP, substrate N-succinyl-Ala-Ala-Pro-Phe-p-nitroanilide; read-out: Ki (apparent Ki, rotamase inhibition)
Chain of FKBP12 (P62942 whole entry): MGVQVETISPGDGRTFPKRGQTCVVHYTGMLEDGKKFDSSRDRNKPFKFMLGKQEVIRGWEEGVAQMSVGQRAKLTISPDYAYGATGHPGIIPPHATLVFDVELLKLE
Excerpt: As discussed above, the compounds of the present invention have an affinity for the FK506 binding protein, particularly FKBP12. The inhibition of the prolyl peptidyl cis-trans isomerase activity of FKBP may be measured as an indicator of this affinity.
Inhibition of the peptidyl-prolyl isomerase (rotamase) activity of the inventive compounds can be evaluated by known methods described in the literature (Harding, et al., Nature, 1989, 341 :758-760; Holt et al. J. Am. Chem. Soc., 115:9923-91938). The cis-trans isomerization of an alanine-proline bond in a model substrate, N-succinyl-Ala-Ala-Pro-Phe-p-nitroanilide, is monitored spectrophotometrically in a chymotrypsin-coupled assay, which releases para-nitroanilide from the trans form of the substrate. The inhibition of this reaction caused by the addition of different concentrations of inhibitor is determined, and the data is analyzed as a change in first-order rate constant as a function of inhibitor concentration to yield the apparent Ki values. […]
The absorbance at 390 nm versus time is monitored for 90 seconds using a spectrophotometer and the rate constants are determined from the absorbance versus time data files. […]

rabbit liver esterase = experiment: Esterase activity: degradation by purified rabbit liver esterase; type: in vitro ADME; conditions: for de-esterification by purified esterase (in words): purified esterification enzyme in vitro; for esterase degradation (rate of enzymatic degradation): purified rabbit liver esterase, 0.05 M Tris buffer pH 7.5, 2 hours
Procedure: as §1
Purified rabbit liver esterase was purchased from Sigma. Five (5) units of enzyme were placed in 2 mL of 0.05 M Tris buffer (pH 7.5). Incubations were performed for 2 hours. The reaction was terminated by removing an aliquot from the reaction mixture and placing it in a tube with an equal volume of acetonitrile and the bioanalytical internal standard. The results of these experiments are presented in Table II as rates of enzymatic degradation of the compounds.

[2] = tested on: MPTP lesioning of dopaminergic neurons in mice; experiment: MPTP model of Parkinson's Disease: striatal TH innervation density; type: in vivo; conditions: MPTP 30 mg/kg i.p. 5 days, test compound 4 mg/kg s.c., FIG. 1
Procedure: FIG. 1 is a bar graph showing Protection of Striatal TH Innervation Density from MPTP-toxicity by Concurrent Drug Dosing.
MPTP lesioning of dopaminergic neurons in mice is used as an animal model of Parkinson's Disease. Four week old male CD1 white mice are dosed i.p. with 30 mg/kg of MPTP for 5 days. Test compounds (4 mg/kg), or vehicle, are administered s.c. along with the MPTP for 5 days, as well as for an additional five days following cessation of MPTP treatment. At 18 days following MPTP treatment, the animals are sacrificed and the striata dissected and perfusion-fixed. Immunostaining is performed on sagittal and coronal brain sections using anti-tyrosine hydroxylase […] to quantitative survival and recovery of dopaminergic neurons. In animals treated MPTP and vehicle, a substantial loss of functional dopaminergic terminals is observed as compared to non-lesioned animals. Lesioned animals receiving test compounds show a significant recovery of TH-stained dopaminergic neurons. This model presents quantitation for the recovery of TH-positive dopaminergic neurons in the striatum of animals receiving of animals receiving the compounds of the present invention. Data for representative control and lesioned animals not receiving the test drugs is also presented against the data from the animals receiving the compounds of the present invention. […]

[3] = tested on: chick dorsal root ganglia; experiment: Chick dorsal root ganglion cultures and neurite growth; type: cell-based; conditions: Gallus gallus; chick embryo DRG explants, 48 hours after drug treatment; read-out: ED50 (neurite outgrowth)
Procedure: Dorsal root ganglia were dissected from chick embryos of ten day gestation. Whole ganglion explants were cultured on thin layer Matrigel-coated 12 well plates with Liebovitz L15 plus high glucose media supplemented with 2 mM glutamine and 10% fetal calf serum, and also containing 10 μM cytosine β-D arabinofuranoside (Ara C) at 37° C. in an environment containing 5% CO2. Twenty-four hours later, […] Forty-eight hours after drug treatment, the ganglia were visualized under phase contrast or Hoffman Modulation contrast with a Zeiss Axiovert inverted microscope. Photomicrographs of the explants were made, and neurite outgrowth was quantified. Neurites longer than the DRG diameter were counted as positive, with total number of neurites quantitated per each experimental condition. Three to four DRGs are cultured per well, and each treatment was performed in duplicate.

**Q.** For `CCC(C)(C)C(=O)C(=O)N1CCC[C@H]1C(=O)OCCCc1ccc[n+]([O-])c1` [Example 1, 3-(3-Pyridyl)-1-propyl (2S)-1-(3,3-Dimethyl-1,2-dioxopentyl) -2-pyrrolidinecarboxylate, N-oxide], which “half-life compared with parent compound (in words)” value ([1]; mouse liver microsomal assay) is on record?
**A.** significantly longer half-life than the parent compound

**Q.** What about the “t1/2 (compound half-life in microsomal assay)” value ([1]; mouse liver microsomes, 0.2 mg/mL protein, 37° C., 1 hour incubation) of the same compound?
**A.** 42.8 min

**Q.** What about the pKi (FKBP12) of the same compound?
**A.** 6.65

**Q.** What about the “de-esterification by purified esterase (in words)” value (rabbit liver esterase) of the same compound?
**A.** limited de-esterification

**Q.** And the “esterase degradation (rate of enzymatic degradation)” value (rabbit liver esterase)?
**A.** 367 pmol/min/mg protein

**Q.** And the “protection / recovery of striatal TH-positive dopaminergic innervation (in words)” value [2]?
**A.** more potent in this in vivo model of neurodegeneration

**Q.** With `CCC(C)(C)C(=O)C(=O)N1CCC[C@H]1C(=O)OCCCc1cccnc1` [Parent, 3-(3-Pyridyl)-1-propyl (2S)-1-(3,3-Dimethyl-1,2-dioxopentyl)-2-pyrrolidinecarboxylate, reference compound] as the compound, how does the pEC50 [3] read?
**A.** 10.30

**Q.** What about the half-life ([1]; mouse liver microsomes, 0.2 mg/mL protein, 37° C., 1 hour incubation, read-out: t1/2 (compound half-life in microsomal assay)) of the same compound?
**A.** 8.1 min

**Q.** And the “de-esterification by purified esterase (in words)” value (rabbit liver esterase)?
**A.** significant degradation

**Q.** And the “esterase degradation (rate of enzymatic degradation)” value (rabbit liver esterase)?
**A.** 7521 pmol/min/mg protein
